Source: patent publication US9394350B2, “HLA-A2 tumor associated antigen peptides and compositions” (OSE PHARMA INTERNATIONAL SA, priority 2003, dated 2016)
Where two headings read alike, the source gives them in different places.

Columns and labels:
[1] = system: purified HLA-DR molecules; conditions: cited from earlier work; for IC50: high or intermediate affinity, most prevalent HLA-DR molecules, read-out: IC50 for HLA-DR binding; for Number of HLA-DR molecules bound: out of 16 DR molecules tested
[2] = system: patients with recurrent or residual cervical carcinoma; conditions: cited from earlier work
[3] = Solubility of individual peptides
[4] = system: PBMC obtained from healthy donors and cancer patients; conditions: primary in vitro induction in healthy donors and recall responses in cancer patients; cited from earlier work
[5] = system: HLA-A2.1 transgenic mice; conditions: shown by others; cited from earlier work
[6] = system: HLA-A2 supertype alleles; assay: MHC binding of motif-containing peptides to purified HLA-A2 supertype molecules; design: species or system human; conditions: all peptides bind prototype HLA-A2.1
Text: Assays for determining binding are described in detail, e.g., in PCT publications WO 94/20127 and WO 94/03205, and other publications such Sidney et al., Current Protocols in Immunology 18.3.1 (1998); Sidney, et al., J. Immunol. 154:247 (1995); and Sette, et al., Mol. Immunol. 31:813 (1994). It should be noted that IC50 values can change, often dramatically, if the assay conditions are varied, and depending on the particular reagents used (e.g., HLA preparation, etc.). For example, excessive concentrations of HLA molecules will increase the apparent measured IC50 of a given ligand.
A computer-based motif and algorithm search was performed on the primary amino acid sequences of CEA, MAGE-2/3, HER-2/neu, and p53 to predict peptides most likely to bind the MHC molecules of the five alleles of the HLA-A2 supertype family (Tables 4 and 6) (Sette, A. and J. Sidney, Immunogenetics 50:201-212 (1999)). Motif and algorithm-positive peptides were then synthesized and tested for binding to purified HLA-A2.1, the molecule most frequently expressed in humans as well as other MHC molecules of the HLA-A2 supertype family.

[7] = system: colon cancer and NSCLC patients; conditions: out of 12 patients who received the DC vaccine; cited from earlier work
[8] = system: HLA-A2.1 positive target cells and wild-type peptide; assay: in vitro primary CTL induction with human PBMC, read-out on peptide-loaded targets; assay type: cell-based
Description: In the final step of the epitope screening process, peptides with high cross-reactive MHC binding to the HLA-A2 supertype family receptors were tested for immunogenicity. The assay is an in vitro primary CTL induction system where CD8^+ PBMC from normal subjects are stimulated in vitro, initially with peptide-loaded dendritic cells (DCs) (adherent PBMC expanded in GM-CSF and IL-4), followed by two weekly cycles of restimulation with peptide (Keogh, E., et al., J. Immunol. 167:787-796 (2001); Kawashima, I., et al., Hum. Immunol. 59:1-14 (1998)). Following expansion of naïve precursor cells, CTL activity is determined in the presence of HLA-A2.1 positive target cells and wild-type peptide, using cytotoxicity (^51Cr-release assay) or interferon-gamma (IFN-γ) production (ELISA) as the read-out. Immunogenic peptides that induced CTL were further tested for responses against the naturally processed epitope expressed on tumor cell lines. Epitopes that induced tumor-reactive CTL were considered as vaccine candidates.

[9] = pH 9.6, Solubility, Basic conditions (pH 9.6-13)
[10] = Solubility, Acidic conditions (pH 2-4)
[11] = Solubility, Acidic conditions (pH 2-4), 0.1% TFA, 0.15-0.1875M acetic acid, 25 mM pH 4 sodium acetate, 2-5 mg/ml
[12] = pH 9.6, Solubility, Basic conditions (pH 9.6-13), 25 mM pH 9.6 arginine, 25 mM pH 9.6 sodium bicarbonate, 0.1M NaOH, 2-5 mg/ml

| Compound | solubility (Solubility, DMSO) [µg/mL] | solubility [9] [µg/mL] | solubility [3, 11] [µg/mL] | solubility ([3]; Solubility, DMSO, 2-5 mg/ml) [µg/mL] | solubility [3, 12] [µg/mL] | Solubility at physiological pH [3] | also measured |
| --- | --- | --- | --- | --- | --- | --- | --- |
| CC(C)C[C@H](NC(=O)[C@@H](NC(=O)[C@H](Cc1c[nH]c2ccccc12)NC(=O)[C@H](C)NC(=O)[C@H](C)NC(=O)[C@@H](NC(=O)[C@H](CC1CCCCC1)NC(=O)[C@H](CCCCN)NC(=O)[C@@H](C)N)C(C)C)[C@@H](C)O)C(=O)N[C@@H](CCCCN)C(=O)N[C@@H](C)C(=O)N[C@@H](C)C(=O)N[C@H](C)C(=O)O [Peptide 965.10, aKXVAAWTLKAAa] |  |  |  |  |  |  | IC50 [1]: ≤ 1000 nM; immunogenicity in humans ([2]; co-emulsified with HPV-derived CTL epitopes): highly immunogenic in humans; safety ([2]; patients with recurrent or residual cervical carcinoma): Safety was, in fact, demonstrated; solubility [3]: > 2000 µg/mL; solubility ([3]; pH 9.6): < 5000 µg/mL |
| CC(C)C[C@H](NC(=O)[C@H](CC(C)C)NC(=O)[C@@H](N)CCCNC(=N)N)C(=O)N[C@@H](CCC(N)=O)C(=O)N[C@@H](CCC(=O)O)C(=O)N[C@H](C(=O)N[C@@H](CCC(=O)O)C(=O)N[C@@H](CC(C)C)C(=O)N[C@H](C(=O)O)C(C)C)[C@@H](C)O [Peptide 1013.08] | > 2000 | > 2000 |  |  |  |  | specific CTL responses using PBMC [4]: induced specific CTL responses |
| CC[C@H](C)[C@H](NC(=O)CNC(=O)[C@H](Cc1ccccc1)NC(=O)[C@@H](NC(=O)[C@H](CC(C)C)NC(=O)[C@H](CCC(N)=O)NC(=O)[C@H](CC(C)C)NC(=O)[C@@H](N)Cc1ccc(O)cc1)C(C)C)C(=O)N[C@@H](CCC(=O)O)C(=O)N[C@H](C(=O)O)C(C)C [Peptide 1090.01] | > 2000 | > 2000 |  |  |  |  | solubility [10]: < 5000 µg/mL; peptide and tumor cell-reactive CTL in vivo [5]: induce peptide and tumor cell-reactive CTL in vivo |
| CC(C)C[C@H](NC(=O)[C@@H](N)CC(C)C)C(=O)N[C@H](C(=O)N[C@@H](Cc1ccccc1)C(=O)N[C@@H](Cc1c[nH]c2ccccc12)C(=O)N[C@@H](CC(N)=O)C(=O)N1CCC[C@H]1C(=O)N1CCC[C@H]1C(=O)N[C@H](C(=O)O)C(C)C)[C@@H](C)O [Peptide 1243.08] | > 2000 | > 2000 |  |  |  |  | solubility [10]: > 2000 µg/mL |
| CSCC[C@H](NC(=O)[C@@H](N)CO)C(=O)N1CCC[C@H]1C(=O)N1CCC[C@H]1C(=O)N1CCC[C@H]1C(=O)NCC(=O)N[C@H](C(=O)N[C@@H](CCCNC(=N)N)C(=O)N[C@H](C(=O)O)C(C)C)[C@@H](C)O [Peptide 1295.03] |  |  | > 2000 | > 2000 | > 2000 | soluble | peptide and tumor cell-reactive CTL in vivo [5]: induce peptide and tumor cell-reactive CTL in vivo |
| CC(C)C[C@H](NC(=O)[C@H](CCC(N)=O)NC(=O)[C@@H](NC(=O)[C@@H]1CCCN1C(=O)C(C)(C)NC(=O)[C@H](CC(C)C)NC(=O)[C@@H](N)CCCCN)C(C)C)C(=O)N[C@@H](Cc1c[nH]c2ccccc12)C(=O)N[C@H](C(=O)O)C(C)C [Peptide 1323.06, KLBPVQLWV] |  |  | > 2000 | > 2000 | > 2000 | soluble |  |
| CC(C)C[C@H](NC(=O)[C@H](CO)NC(=O)CNC(=O)[C@H](Cc1ccccc1)NC(=O)[C@@H](NC(=O)[C@@H](N)CCCCN)C(C)C)C(=O)N[C@@H](C)C(=O)N[C@@H](Cc1ccccc1)C(=O)N[C@H](C(=O)O)C(C)C [Peptide 1334.10] | > 2000 | < 5000 |  |  |  |  | solubility [10]: > 2000 µg/mL |
| CC(C)C[C@H](NC(=O)[C@H](CC(N)=O)NC(=O)[C@H](CC(C)C)NC(=O)[C@H](CC(=O)O)NC(=O)[C@H](C)NC(=O)CNC(=O)[C@H](CO)NC(=O)[C@H](CC(C)C)NC(=O)[C@@H](N)Cc1ccc(O)cc1)C(=O)O [Peptide 1350.01] |  |  | > 2000 | > 2000 | > 2000 | soluble | No. A2 Alleles Crossbound [6]: 3; clinical responders [7]: five |
| CC[C@H](C)[C@H](N)C(=O)N[C@@H](CCSC)C(=O)N[C@H](C(=O)NCC(=O)N[C@@H](Cc1c[nH]cn1)C(=O)N[C@@H](CC(C)C)C(=O)N[C@H](C(=O)NCC(=O)N[C@H](C(=O)O)C(C)C)C(C)C)[C@@H](C)CC [Peptide 1352.02] |  |  | > 2000 | > 2000 | < 5000 |  | CTL activity of heteroclitic analog versus wild-type peptide [8]: strong CTL activity which exceeds that of the wild-type peptide |
| CC[C@H](C)[C@H](NC(=O)[C@H](CCC(=O)O)NC(=O)[C@H](C)NC(=O)[C@@H](NC(=O)[C@@H](N)CCCCN)C(C)C)C(=O)N[C@H](C(=O)N[C@@H](Cc1c[nH]cn1)C(=O)N[C@@H](Cc1ccccc1)C(=O)N[C@@H](CC(C)C)C(=O)O)C(C)C [Peptide 1352.03] |  |  | > 2000 | > 2000 | > 2000 | soluble | CTL activity of heteroclitic analog versus wild-type peptide [8]: strong CTL activity which exceeds that of the wild-type peptide |
| TT 830-843: tetanus toxoid (TT) peptide 830-843, a "universal" epitope (QYIKANSKFIGITE; UniProt P04958 830-843, looked up, fragment) [reference compound] |  |  |  |  |  |  | Number of HLA-DR molecules bound [1]: seven |
| aKXVAAWTLKAAa-NH2 |  |  |  |  |  |  | IC50 [1]: ≤ 1000 nM; Number of HLA-DR molecules bound [1]: 15 |
| p53.149: wild-type version of analog p53.149M2 used in EP-2101 (STPPPGTRV; UniProt P04637 149-157, looked up, fragment) [reference compound] |  |  |  |  |  |  | specific CTL responses using PBMC [4]: induced specific CTL responses |
